# Measured values: publication PMC12444472, “BCI inhibits MKP3 by targeting the kinase-binding domain and disrupting ERK2 interaction” (The Journal of Biological Chemistry, 2025)
# What was measured:
# Test in all cases: NMR titration (1H-15N HSQC)
# Format in all cases: binding
# [1] = biological target: T1, MKP1^KBD (Homo sapiens, UniProt P28562); conditions: molar ratio 1:15
# T1 construct: MKP1(1–141) (MKP1^KBD); made in house; host or cells: Escherichia coli BL21(DE3)
# T1 sequence (P28562 1-141): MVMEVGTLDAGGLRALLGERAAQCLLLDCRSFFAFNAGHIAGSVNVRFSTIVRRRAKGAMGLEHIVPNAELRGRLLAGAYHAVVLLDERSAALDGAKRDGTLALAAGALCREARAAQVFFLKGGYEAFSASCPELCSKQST
# Experimental: (§1) NMR data were collected at 298 K on a Bruker AVANCE NEO 800 MHz spectrometer (Bruker BioSpin) equipped with a ^1H&^19F/^13C/^15N TCI cryogenic probe. Backbone resonances of MKP3^1–154 were assigned using 2D/3D experiments, including 2D ^1H–^15N HSQC and 3D ^1H/^13C/^15N CBCA(CO)NH, HNCACB, HNCO, and HN(CA)CO, performed with uniformly ^13C/^15N labeled protein at a final concentration of 0.39 mM in buffer containing 20 mM imidazole (pH 6.0), 100 mM NaCl, 5 mM DTT, 0.5 mM EDTA, and 5% (v/v) D2O. The buffer used for backbone resonance assignment was similar to that used for the previously reported NMR structure ([15]). NMR titration experiments were conducted using ^15N-labeled MKP3^1–154, MKP3^14–152, MKP3^204–350, MKP1^1–141, MKP2^5–159, MKPX^1–140, MKP4^1–143, and MKP5^139–287. 2D ^1H–^15N HSQC spectra of ^15N-labeled MKPs^KBD (0.1 mM) were acquired in the absence and presence of BCI (50 mM stock in DMSO-d6) in buffer containing 50 mM KH2PO4–K2HPO4 (pH 7.2), 100 mM KCl, 1 mM Tris(2-carboxyethyl)phosphine hydrochloride, 1 mM EDTA, and 5% (v/v) D2O. Control experiments, in which only the corresponding volume of DMSO-d6 was added to ^15N-labeled proteins, were performed to exclude possible effects of DMSO on the interactions. For ^15N T1 measurements, the relaxation delay times were set to 20 (×2), 100, 200 (×2), 300, 400, 600 (×2), 800, 1200, and 1600 ms. For ^15N T2 measurements, the delay times were 7.84, 15.68 (×2), 23.52, 31.36 (×2), 39.2, 47.04 (×2), 54.88, 62.72, 78.4, 94.08, and 109.76 ms. The relaxation rates R1 (1/T1) and R2 (1/T2) for each residue were determined by fitting the peak intensities from spectra acquired at the various delay times to a single-exponential decay function: I/I0 = exp(-R1,2·t), where I0 is the intensity at t = 0, and I is the intensity at a delay time t. Repeated measurements were used to estimate the uncertainties of the R1 and R2 values via Monte Carlo analysis. Heteronuclear steady-state ^1H–^15N NOE experiments were acquired in an interleaved mode, with 5 s of ^1H saturation for NOE build-up and 5 s of relaxation delay for the reference spectra. Repeated experiments were performed to estimate uncertainties, and the propagated error for each NOE value was calculated using the following equation: σNOE = NOE × ((σsat/Isat)^2+(σunsat/Iunsat)^2)^1/2, where σsat and σunsat are the SDs of the saturated and unsaturated spectra, respectively, and Isat and Iunsat are the corresponding signal intensities. NMR data were processed using TopSpin 4.1.1 (Bruker BioSpin) or NMRPipe ([54]) and analyzed with POKY ([55]).
# [2] = biological target: T2, MKP3^CD (Homo sapiens, UniProt Q16828)
# T2 construct: ^15N-labeled MKP3^1–154, MKP3^14–152, MKP3^204–350; made in house; host or cells: Escherichia coli BL21(DE3)
# T2 sequence (Q16828 204-350): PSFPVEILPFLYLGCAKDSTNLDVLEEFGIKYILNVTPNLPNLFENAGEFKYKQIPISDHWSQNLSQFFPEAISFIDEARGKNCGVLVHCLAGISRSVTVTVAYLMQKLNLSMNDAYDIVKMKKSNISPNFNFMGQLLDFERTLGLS
# Experimental: as §1
# [3] = biological target: T3, MKP3^KBD (Homo sapiens, UniProt Q16828); conditions: 15N-labeled MKP3^KBD titrated with BCI, analysed at 1:4 M ratio
# T3 construct: MKP3(1–154) (MKP3^KBD); made in house; host or cells: Escherichia coli BL21(DE3)
# T3 sequence (Q16828 1-154): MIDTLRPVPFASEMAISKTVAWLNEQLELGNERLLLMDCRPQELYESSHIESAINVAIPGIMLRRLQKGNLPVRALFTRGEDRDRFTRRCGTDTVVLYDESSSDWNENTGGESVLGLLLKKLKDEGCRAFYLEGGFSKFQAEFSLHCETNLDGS
# Experimental: as §1
# [4] = biological target: T4, MKP4^KBD (Homo sapiens, UniProt Q99956); conditions: molar ratio 1:15
# T4 construct: MKP2^5–159, MKPX^1–140, MKP4^1–143, and MKP5^139–287; made in house; host or cells: Escherichia coli BL21(DE3)
# T4 sequence (Q99956 1-143): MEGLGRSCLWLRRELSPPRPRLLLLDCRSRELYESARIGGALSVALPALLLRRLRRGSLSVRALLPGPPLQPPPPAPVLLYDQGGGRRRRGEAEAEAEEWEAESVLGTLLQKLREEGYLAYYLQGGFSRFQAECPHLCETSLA
# Experimental: as §1
# [5] = biological target: T5, MKP5^KBD (Homo sapiens, UniProt Q9Y6W6); conditions: molar ratio 1:5
# T5 construct: MKP5(139–287) (MKP5^KBD); made in house; host or cells: Escherichia coli BL21(DE3)
# T5 sequence (Q9Y6W6 139-287): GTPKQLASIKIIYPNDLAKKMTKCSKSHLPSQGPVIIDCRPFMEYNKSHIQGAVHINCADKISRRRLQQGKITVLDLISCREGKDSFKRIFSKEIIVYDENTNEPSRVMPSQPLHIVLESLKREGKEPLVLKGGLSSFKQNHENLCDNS
# Experimental: as §1
# [6] = biological target: T6, MKPX^KBD (Homo sapiens, UniProt Q16829); conditions: molar ratio 1:2
# T6 construct: MKPX(1–140) (MKPX^KBD); made in house; host or cells: Escherichia coli BL21(DE3)
# T6 sequence (Q16829 1-140 isoform Q16829-2): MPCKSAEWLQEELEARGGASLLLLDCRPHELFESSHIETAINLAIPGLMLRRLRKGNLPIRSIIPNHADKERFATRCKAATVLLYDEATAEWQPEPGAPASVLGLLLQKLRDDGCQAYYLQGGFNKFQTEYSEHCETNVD
# Experimental: as §1
compound,measurement,setting,value
"O=C1/C(=C/c2ccccc2)C(NC2CCCCC2)c2ccccc21 (stereo not shown) [BCI, (E)-2-benzylidene-3-(cyclohexylamino)-2,3-dihydro-1H-inden-1-one]",perturbation of NMR spectrum,[1],No significant NMR peak perturbation
same,perturbation of NMR spectrum,"[2]; excess BCI, without DMSO (low-activity state)",no detectable interaction
same,perturbation of NMR spectrum,[2]; with 25% DMSO (high-activity state),failed to perturb the spectrum
same,perturbation of NMR spectrum,[3],significant peak broadening
same,perturbation of NMR spectrum,[4],No significant NMR peak perturbation
same,perturbation of NMR spectrum,[5],Significant peak broadening
same,perturbation of NMR spectrum,[6],Significant peak broadening
